Source: EP1935986B1, “Luminogenic and fluorogenic compounds and methods to detect molecules or conditions” (priority 2005, dated 2006)

These molecules were tested against T1, QuantiLum Luciferase (Photinus pyralis, UniProt P08659) (assay: Scaffolds: light emission of luciferin derivatives with QuantiLum luciferase alone, + Co A, + DTT, + Co A and DTT). Details: Derivative Conc. 1.07; Alone.
T1 construct: purchased Promega Corporation E170
T1 sequence (P08659 whole entry): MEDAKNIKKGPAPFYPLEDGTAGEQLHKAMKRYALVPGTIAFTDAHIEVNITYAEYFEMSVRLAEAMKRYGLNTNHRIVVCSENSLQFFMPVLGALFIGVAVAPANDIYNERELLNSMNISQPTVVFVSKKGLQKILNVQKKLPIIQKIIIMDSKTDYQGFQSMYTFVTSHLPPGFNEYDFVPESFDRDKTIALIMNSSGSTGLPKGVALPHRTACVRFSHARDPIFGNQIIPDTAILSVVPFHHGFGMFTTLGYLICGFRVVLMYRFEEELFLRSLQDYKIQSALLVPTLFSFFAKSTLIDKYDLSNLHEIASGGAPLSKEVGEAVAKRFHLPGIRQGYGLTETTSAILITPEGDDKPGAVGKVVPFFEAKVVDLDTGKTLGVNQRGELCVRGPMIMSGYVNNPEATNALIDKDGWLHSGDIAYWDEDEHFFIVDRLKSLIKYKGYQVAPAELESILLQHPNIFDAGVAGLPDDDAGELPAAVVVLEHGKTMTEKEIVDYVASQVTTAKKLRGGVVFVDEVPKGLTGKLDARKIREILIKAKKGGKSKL
Format: biochemical, firefly
Method: The DTT, Coenzyme A, and QuantiLum stock solutions are the same as those described herein.
This solution was diluted 1:1 with water to produce an enzyme solution labeled "No addition." This solution was diluted 1:1 with 400 mM DTT, pH 8.0 to produce a solution labeled +DTT. This solution was diluted 1:1 with 4 mM Coenzyme A to produce a solution labeled + Co A. Finally, this solution was diluted 1:1 with a solution having both 4 mM Coenzyme A and 400 mM DTT to produce a solution labeled +Co A & DTT.
50 µl samples of these solutions were placed in the wells of luminometer microtiter plates, row A to row G, respeutivly. Row H of the plates was given 50 µl of water.
Reactions in these plates were initiated by addition of 50 µl of solution containing QuantiLum luciferase using a 12 channel micropipette. The solutions added to the rows were: columns 1, 5, and 9 - no addition solution; columns 2, 6, and 10 - + Co A solution; columns 3, 7, and 11 + DTT solution, and; columns 4, 8, and 12 - + Co A and DTT solution. After addition of the enzyme solution to the first row on every plate, a timer was started. After addition of the enzyme solution to the last row on each plate, the plate was sealed and read on a Veritas luminometer.
CCN(CC)c1ccc2nc(C3=NC(C(=O)O)CS3)sc2c1 (stereo not drawn) [diethylaminoluciferin] gave a light emission values of 656110. In the case of CN(Cc1ccccc1)c1ccc2nc(C3=NC(C(=O)O)CS3)sc2c1 (stereo not drawn) [methylbenzylaminoluciferin], the light emission values is reported as 25907602.

Same assay, conditions: Derivative Conc. 1.07; Co A
CCN(CC)c1ccc2nc(C3=NC(C(=O)O)CS3)sc2c1 (stereo not drawn) [diethylaminoluciferin] showed a light emission values of 688887. CN(Cc1ccccc1)c1ccc2nc(C3=NC(C(=O)O)CS3)sc2c1 (stereo not drawn) [methylbenzylaminoluciferin] gave a light emission values of 12863007.

Same assay, conditions: Derivative Conc. 1.07; Co A + DTT
Work on CCN(CC)c1ccc2nc(C3=NC(C(=O)O)CS3)sc2c1 (stereo not drawn) [diethylaminoluciferin] yielded a light emission values of 20592. CN(Cc1ccccc1)c1ccc2nc(C3=NC(C(=O)O)CS3)sc2c1 (stereo not drawn) [methylbenzylaminoluciferin] gave a light emission values of 2037020.

Same assay, conditions: Derivative Conc. 1.07; DTT
In the case of CCN(CC)c1ccc2nc(C3=NC(C(=O)O)CS3)sc2c1 (stereo not drawn) [diethylaminoluciferin], the light emission values is reported as 5192. CN(Cc1ccccc1)c1ccc2nc(C3=NC(C(=O)O)CS3)sc2c1 (stereo not drawn) [methylbenzylaminoluciferin] gave a light emission values of 929977.

Same assay, conditions: Derivative Conc. 3.13; Alone
Work on CCN(CC)c1ccc2nc(C3=NC(C(=O)O)CS3)sc2c1 (stereo not drawn) [diethylaminoluciferin] yielded a light emission values of 2259570. With CN(Cc1ccccc1)c1ccc2nc(C3=NC(C(=O)O)CS3)sc2c1 (stereo not drawn) [methylbenzylaminoluciferin] the light emission values was 34516960.

Same assay, conditions: Derivative Conc. 3.13; Co A
In the case of CCN(CC)c1ccc2nc(C3=NC(C(=O)O)CS3)sc2c1 (stereo not drawn) [diethylaminoluciferin], the light emission values is reported as 1941060. Work on CN(Cc1ccccc1)c1ccc2nc(C3=NC(C(=O)O)CS3)sc2c1 (stereo not drawn) [methylbenzylaminoluciferin] yielded a light emission values of 23501282.

Same assay, conditions: Derivative Conc. 3.13; Co A + DTT
CCN(CC)c1ccc2nc(C3=NC(C(=O)O)CS3)sc2c1 (stereo not drawn) [diethylaminoluciferin] gave a light emission values of 93423. CN(Cc1ccccc1)c1ccc2nc(C3=NC(C(=O)O)CS3)sc2c1 (stereo not drawn) [methylbenzylaminoluciferin] showed a light emission values of 9404429.

Same assay, conditions: Derivative Conc. 3.13; DTT
CCN(CC)c1ccc2nc(C3=NC(C(=O)O)CS3)sc2c1 (stereo not drawn) [diethylaminoluciferin] showed a light emission values of 47727. Molecule CN(Cc1ccccc1)c1ccc2nc(C3=NC(C(=O)O)CS3)sc2c1 (stereo not drawn) [methylbenzylaminoluciferin] has a light emission values of 8088743.

Same assay, conditions: Derivative Conc. 6.25; Alone
For CCN(CC)c1ccc2nc(C3=NC(C(=O)O)CS3)sc2c1 (stereo not drawn) [diethylaminoluciferin], the light emission values was 4009797. Work on CN(Cc1ccccc1)c1ccc2nc(C3=NC(C(=O)O)CS3)sc2c1 (stereo not drawn) [methylbenzylaminoluciferin] yielded a light emission values of 43052788.

Same assay, conditions: Derivative Conc. 6.25; Co A
Molecule CCN(CC)c1ccc2nc(C3=NC(C(=O)O)CS3)sc2c1 (stereo not drawn) [diethylaminoluciferin] has a light emission values of 3457051. CN(Cc1ccccc1)c1ccc2nc(C3=NC(C(=O)O)CS3)sc2c1 (stereo not drawn) [methylbenzylaminoluciferin] was tested, and the light emission values was 35730272.

Same assay, conditions: Derivative Conc. 6.25; Co A + DTT
Work on CN(Cc1ccccc1)c1ccc2nc(C3=NC(C(=O)O)CS3)sc2c1 (stereo not drawn) [methylbenzylaminoluciferin] yielded a light emission values of 19738584.

Same assay, conditions: Derivative Conc. 6.25; DTT
CCN(CC)c1ccc2nc(C3=NC(C(=O)O)CS3)sc2c1 (stereo not drawn) [diethylaminoluciferin] gave a light emission values of 165732. Work on CN(Cc1ccccc1)c1ccc2nc(C3=NC(C(=O)O)CS3)sc2c1 (stereo not drawn) [methylbenzylaminoluciferin] yielded a light emission values of 21756222.

Same assay, conditions: Derivative Conc. 12.5; Alone
CCN(CC)c1ccc2nc(C3=NC(C(=O)O)CS3)sc2c1 (stereo not drawn) [diethylaminoluciferin] gave a light emission values of 5418990. Work on CN(Cc1ccccc1)c1ccc2nc(C3=NC(C(=O)O)CS3)sc2c1 (stereo not drawn) [methylbenzylaminoluciferin] yielded a light emission values of 50528576.

Same assay, conditions: Derivative Conc. 12.5; Co A
In the case of CCN(CC)c1ccc2nc(C3=NC(C(=O)O)CS3)sc2c1 (stereo not drawn) [diethylaminoluciferin], the light emission values is reported as 4485779. For CN(Cc1ccccc1)c1ccc2nc(C3=NC(C(=O)O)CS3)sc2c1 (stereo not drawn) [methylbenzylaminoluciferin], the light emission values was 50418220.

Same assay, conditions: Derivative Conc. 12.5; Co A + DTT
With CCN(CC)c1ccc2nc(C3=NC(C(=O)O)CS3)sc2c1 (stereo not drawn) [diethylaminoluciferin] the light emission values was 645536. Work on CN(Cc1ccccc1)c1ccc2nc(C3=NC(C(=O)O)CS3)sc2c1 (stereo not drawn) [methylbenzylaminoluciferin] yielded a light emission values of 30367190.

Same assay, conditions: Derivative Conc. 12.5; DTT
Molecule CCN(CC)c1ccc2nc(C3=NC(C(=O)O)CS3)sc2c1 (stereo not drawn) [diethylaminoluciferin] has a light emission values of 682672. Molecule CN(Cc1ccccc1)c1ccc2nc(C3=NC(C(=O)O)CS3)sc2c1 (stereo not drawn) [methylbenzylaminoluciferin] has a light emission values of 36663612.

Same assay, conditions: Derivative Conc. 25; Alone
With CCN(CC)c1ccc2nc(C3=NC(C(=O)O)CS3)sc2c1 (stereo not drawn) [diethylaminoluciferin] the light emission values was 6763022. CN(Cc1ccccc1)c1ccc2nc(C3=NC(C(=O)O)CS3)sc2c1 (stereo not drawn) [methylbenzylaminoluciferin] was tested, and the light emission values was 61572912.

Same assay, conditions: Derivative Conc. 25; Co A
Molecule CCN(CC)c1ccc2nc(C3=NC(C(=O)O)CS3)sc2c1 (stereo not drawn) [diethylaminoluciferin] has a light emission values of 5623886. In the case of CN(Cc1ccccc1)c1ccc2nc(C3=NC(C(=O)O)CS3)sc2c1 (stereo not drawn) [methylbenzylaminoluciferin], the light emission values is reported as 63598896.

Same assay, conditions: Derivative Conc. 25; Co A + DTT
In the case of CCN(CC)c1ccc2nc(C3=NC(C(=O)O)CS3)sc2c1 (stereo not drawn) [diethylaminoluciferin], the light emission values is reported as 1067954. CN(Cc1ccccc1)c1ccc2nc(C3=NC(C(=O)O)CS3)sc2c1 (stereo not drawn) [methylbenzylaminoluciferin] showed a light emission values of 42613860.

Same assay, conditions: Derivative Conc. 25; DTT
For CCN(CC)c1ccc2nc(C3=NC(C(=O)O)CS3)sc2c1 (stereo not drawn) [diethylaminoluciferin], the light emission values was 1304383. In the case of CN(Cc1ccccc1)c1ccc2nc(C3=NC(C(=O)O)CS3)sc2c1 (stereo not drawn) [methylbenzylaminoluciferin], the light emission values is reported as 50632712.

Same assay, conditions: Derivative Conc. 50; Alone
Molecule CCN(CC)c1ccc2nc(C3=NC(C(=O)O)CS3)sc2c1 (stereo not drawn) [diethylaminoluciferin] has a light emission values of 8176569. CN(Cc1ccccc1)c1ccc2nc(C3=NC(C(=O)O)CS3)sc2c1 (stereo not drawn) [methylbenzylaminoluciferin] was tested, and the light emission values was 73867336.

Same assay, conditions: Derivative Conc. 50; Co A
CCN(CC)c1ccc2nc(C3=NC(C(=O)O)CS3)sc2c1 (stereo not drawn) [diethylaminoluciferin] gave a light emission values of 7206157. CN(Cc1ccccc1)c1ccc2nc(C3=NC(C(=O)O)CS3)sc2c1 (stereo not drawn) [methylbenzylaminoluciferin] gave a light emission values of 78390592.

Same assay, conditions: Derivative Conc. 50; Co A + DTT
With CCN(CC)c1ccc2nc(C3=NC(C(=O)O)CS3)sc2c1 (stereo not drawn) [diethylaminoluciferin] the light emission values was 1538668. Molecule CN(Cc1ccccc1)c1ccc2nc(C3=NC(C(=O)O)CS3)sc2c1 (stereo not drawn) [methylbenzylaminoluciferin] has a light emission values of 47965140.

Same assay, conditions: Derivative Conc. 50; DTT
CCN(CC)c1ccc2nc(C3=NC(C(=O)O)CS3)sc2c1 (stereo not drawn) [diethylaminoluciferin] gave a light emission values of 1826771. With CN(Cc1ccccc1)c1ccc2nc(C3=NC(C(=O)O)CS3)sc2c1 (stereo not drawn) [methylbenzylaminoluciferin] the light emission values was 54238960.

Same assay, conditions: Derivative Conc. 100; Alone
Molecule CCN(CC)c1ccc2nc(C3=NC(C(=O)O)CS3)sc2c1 (stereo not drawn) [diethylaminoluciferin] has a light emission values of 9082149. Work on CN(Cc1ccccc1)c1ccc2nc(C3=NC(C(=O)O)CS3)sc2c1 (stereo not drawn) [methylbenzylaminoluciferin] yielded a light emission values of 85579872.

Same assay, conditions: Derivative Conc. 100; Co A
In the case of CN(Cc1ccccc1)c1ccc2nc(C3=NC(C(=O)O)CS3)sc2c1 (stereo not drawn) [methylbenzylaminoluciferin], the light emission values is reported as 89117784.

Same assay, conditions: Derivative Conc. 100; Co A + DTT
CCN(CC)c1ccc2nc(C3=NC(C(=O)O)CS3)sc2c1 (stereo not drawn) [diethylaminoluciferin] showed a light emission values of 1960750. With CN(Cc1ccccc1)c1ccc2nc(C3=NC(C(=O)O)CS3)sc2c1 (stereo not drawn) [methylbenzylaminoluciferin] the light emission values was 48409604.

Same assay, conditions: Derivative Conc. 100; DTT
For CCN(CC)c1ccc2nc(C3=NC(C(=O)O)CS3)sc2c1 (stereo not drawn) [diethylaminoluciferin], the light emission values was 2180983. Work on CN(Cc1ccccc1)c1ccc2nc(C3=NC(C(=O)O)CS3)sc2c1 (stereo not drawn) [methylbenzylaminoluciferin] yielded a light emission values of 50806656.
